# In article PMC7835950 (Frontiers in Chemistry, 2021):
# Read-outs that look alike come from different tables or passages of the source.
# Assays:
# [1] = Stability of the phosphonates and their esters during storage, by NMR; type: physicochemical; conditions: trisodium salts
# Experimental: Stability of the purified phosphonates and their esterified precursor was analyzed by NMR after storage under the inert (pure argon) or ambient (air) atmosphere and in water solutions. ^1H, ^13C and ^31P NMR spectra were recorded at 400, 100.6, and 161.9 MHz, respectively with a Bruker Avance 400 spectrometer. Chemical shifts were calculated using D2O or CDCl3 as reference standards for trisodium salts and triesters, respectively. The spectra of the phosphonates and their esters before and after storage are shown in Supplementary Figures 1, 2 correspondingly.
# OGDH = target: T1, OGDH (Rattus norvegicus, UniProt Q5XI78); assay: OGDH reaction (OG saturation) catalyzed by the enzyme preparation from rat heart; type: biochemical; set-up: the tissue fractions with the complexes enriched to a degree allowing for a robust detection of the enzymatic activities, have been used; from tissue; host or cells: rat heart
# T1 sequence (Q5XI78 41-1023): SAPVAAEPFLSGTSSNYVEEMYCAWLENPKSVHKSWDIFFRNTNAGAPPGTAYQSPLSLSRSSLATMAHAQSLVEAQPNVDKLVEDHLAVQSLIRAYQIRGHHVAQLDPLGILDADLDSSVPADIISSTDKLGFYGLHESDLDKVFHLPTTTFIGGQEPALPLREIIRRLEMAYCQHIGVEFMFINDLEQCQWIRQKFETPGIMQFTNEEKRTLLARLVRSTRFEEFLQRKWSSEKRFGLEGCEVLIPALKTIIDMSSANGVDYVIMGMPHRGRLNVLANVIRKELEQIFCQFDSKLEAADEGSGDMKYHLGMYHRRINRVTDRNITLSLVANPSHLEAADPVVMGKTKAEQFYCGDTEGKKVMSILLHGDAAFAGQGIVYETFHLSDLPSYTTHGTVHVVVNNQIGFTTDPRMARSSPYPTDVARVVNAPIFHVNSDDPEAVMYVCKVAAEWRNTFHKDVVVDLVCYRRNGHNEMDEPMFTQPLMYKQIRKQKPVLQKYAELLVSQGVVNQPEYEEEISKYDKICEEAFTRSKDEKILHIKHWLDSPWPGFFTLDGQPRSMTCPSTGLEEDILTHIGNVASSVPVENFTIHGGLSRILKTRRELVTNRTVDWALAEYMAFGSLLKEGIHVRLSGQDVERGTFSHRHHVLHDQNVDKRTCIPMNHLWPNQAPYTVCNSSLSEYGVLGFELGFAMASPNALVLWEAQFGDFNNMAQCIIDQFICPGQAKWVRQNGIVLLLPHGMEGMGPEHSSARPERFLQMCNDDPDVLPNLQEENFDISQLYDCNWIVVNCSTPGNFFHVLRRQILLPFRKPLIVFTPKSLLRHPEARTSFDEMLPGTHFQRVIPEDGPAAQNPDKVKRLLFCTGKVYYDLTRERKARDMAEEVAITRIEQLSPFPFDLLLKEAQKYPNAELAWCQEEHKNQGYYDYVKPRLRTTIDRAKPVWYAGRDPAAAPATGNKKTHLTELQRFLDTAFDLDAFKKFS
# T1 sequence (Q01205 69-454 partner): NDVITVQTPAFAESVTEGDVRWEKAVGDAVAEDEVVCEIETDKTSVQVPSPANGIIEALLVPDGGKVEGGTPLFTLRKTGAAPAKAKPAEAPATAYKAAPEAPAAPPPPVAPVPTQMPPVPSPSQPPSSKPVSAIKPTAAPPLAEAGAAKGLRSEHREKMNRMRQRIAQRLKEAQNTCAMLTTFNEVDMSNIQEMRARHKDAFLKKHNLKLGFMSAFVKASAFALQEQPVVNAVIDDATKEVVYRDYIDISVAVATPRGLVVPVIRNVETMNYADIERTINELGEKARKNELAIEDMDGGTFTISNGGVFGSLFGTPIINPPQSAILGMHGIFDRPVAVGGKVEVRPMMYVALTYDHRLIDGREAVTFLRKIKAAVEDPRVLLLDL
# T1 sequence (Q6P6R2 36-509 partner): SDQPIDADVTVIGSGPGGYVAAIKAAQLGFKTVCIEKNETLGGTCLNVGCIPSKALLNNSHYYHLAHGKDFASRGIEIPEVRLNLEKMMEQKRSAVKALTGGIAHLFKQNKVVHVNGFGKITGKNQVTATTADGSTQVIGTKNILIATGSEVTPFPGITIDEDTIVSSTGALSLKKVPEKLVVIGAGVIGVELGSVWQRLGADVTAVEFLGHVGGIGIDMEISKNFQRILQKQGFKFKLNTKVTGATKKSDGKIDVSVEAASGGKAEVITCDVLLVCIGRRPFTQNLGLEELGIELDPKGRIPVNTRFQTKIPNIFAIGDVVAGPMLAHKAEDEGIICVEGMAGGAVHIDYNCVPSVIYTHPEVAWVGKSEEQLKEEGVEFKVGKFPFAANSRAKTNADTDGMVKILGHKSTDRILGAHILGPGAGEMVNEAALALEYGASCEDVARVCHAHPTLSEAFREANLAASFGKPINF
# Experimental: Reactions were started by addition of the enzyme preparations to the assay media. The amount of enzyme preparations (0.074 mg protein for the preparation from liver and 0.023 mg protein for the preparation from heart) were chosen to induce the lowest reliably measured reaction rate (ΔA340 = 0.001/min) at 0.01 mM OA without the phosphonates.
# Reaction rates were calculated from linear parts of the product accumulation curves (up to 10 min, dependent on the reaction rate), excluding the initial region, where mixing the reagents and solubilization of the preparation affected the optical density.
# The former equation describes one type of the active sites. […] The assumption was based on the presence of the two enzymes, OGDH and OADH, in the employed preparations.
# The Km and Amax values obtained in independent experiments using the non-linear and linear regression analyses of the experimental data, were averaged and presented as Mean ± Standard Error of Mean.
# The values of Ki were determined as the ratio of the corresponding Intercepts to the Slopes. In the two-site model, the Ki(1) and Ki(2) were calculated separately from the linear approximations of Km,1eff/Amax,1eff vs. [I] and Km,2eff/Amax,2eff vs. [I] dependences, respectively. […] The Ki values obtained from the non-linear and linear regression analyses of the experimental data were averaged and presented as Mean ± Standard Error of Mean.
# [2] = OGDH reaction, heart, Eadie-Hofstee, read-out: Ki, EH
# [3] = OGDH reaction, heart, Lineweaver-Burk, read-out: Ki, LB
# [4] = OGDH reaction, heart, Michaelis-Menten approximation, read-out: Ki, MM
# [5] = OGDH reaction, heart, average of MM, LB, EH, read-out: Ki, Average
# [6] = [I] 10 µM, OGDH reaction, heart
# [7] = [I] 50 µM, OGDH reaction, heart
# [8] = [I] 200 µM, OGDH reaction, heart
# [9] = [I] 1000 µM, OGDH reaction, heart
Compound,stability upon the shelf storage [1],Ki (OGDH; [2]) [µM],Ki (OGDH; [3]) [µM],Ki (OGDH; [4]) [µM],Ki (OGDH; [5]) [µM],"Amax (OGDH; [I] 0.5 µM, OGDH reaction, heart)","Amax (OGDH; [I] 2 µM, OGDH reaction, heart)",Amax (OGDH; [6]),Amax (OGDH; [7]),Amax (OGDH; [8]),Amax (OGDH; [9]),"Amax (OGDH; [I] 5000 µM, OGDH reaction, heart)","Ki (OGDH; Ki, Average, OGDH reaction, heart, average of MM, LB, EH) [µM]","Ki (OGDH; Ki, LB, OGDH reaction, heart, Lineweaver-Burk) [µM]","Ki (OGDH; Ki, MM, OGDH reaction, heart, Michaelis-Menten approximation) [µM]","Ki (OGDH; rounded from Table 2 (heart and liver preparations), read-out: Ki as OGDH inhibitor (order of magnitude)) [µM]"
"O=C(O)CCCCC(=O)P(=O)(O)O [AP, adipoyl phosphonate]",high stability,1760 ± 77,2140 ± 517,2490 ± 341,2130 ± 211,0.70 ± 0.02 µmol/min per mg of protein,0.72 ± 0.01 µmol/min per mg of protein,0.62 ± 0.01 µmol/min per mg of protein,0.67 ± 0.01 µmol/min per mg of protein,0.70 ± 0.02 µmol/min per mg of protein,0.63 ± 0.03 µmol/min per mg of protein,0.61 ± 0.04 µmol/min per mg of protein,–,–,–,–
"O=C(O)CCCC(=O)P(=O)(O)O [GP, glutaryl phosphonate]",high stability,49 ± 8,12 ± 1,39 ± 2,33 ± 11,–,0.67 ± 0.02 µmol/min per mg of protein,0.76 ± 0.02 µmol/min per mg of protein,0.79 ± 0.03 µmol/min per mg of protein,0.86 ± 0.05 µmol/min per mg of protein,–,–,–,–,–,–
"O=C(O)CCC(=O)P(=O)(O)O [SP, succinyl phosphonate]",high stability,15 ± 1,–,–,–,–,–,0.72 ± 0.01 µmol/min per mg of protein,0.71 ± 0.02 µmol/min per mg of protein,0.45 ± 0.11 µmol/min per mg of protein,0.54 ± 0.07 µmol/min per mg of protein,–,16 ± 2,13 ± 2,20 ± 1,10
